# Data taken from patent US9237744B2, “Preservative solution for cells, tissues and organs containing rare sugar and preservative method thereof” (NATIONAL UNIVERSITY CORPORATION KAGAWA UNIVERSITY, priority 2004, dated 2016).
# How the values were obtained:
# [1] = tested on: MPO; assay: Renal ischemic reperfusion model, MPO as index of accumulation of leukocytes; format: in vivo, rat; conditions: 400 mg/kg intravenously 30 minutes before renal ischemia; peak after 6 hours of reperfusion (FIG. 13)
# Description: (§1) Object: male rats with a body weight of 200˜250 g Experimental method: After anesthetization of a rat with nenbutal, a renal ischemic model is prepared. Renal ischemic model: After extraction of the right kidney, the left kidney blood vessel is clamped for 45 minutes. 400 mg/kg of the solution is intravenously administered to the D-allose group 30 minutes before the renal ischemia. A raw feed is administered to the control group. Estimation: Change with time of a CINC-1 protein amount and MPO as an index of accumulation of leukocytes after ischemic reperfusion
# [2] = tested on: CINC-1; assay: Renal ischemic reperfusion model, CINC-1 protein amount; format: in vivo, rat; conditions: 400 mg/kg intravenously 30 minutes before renal ischemia, 45 minutes clamp (FIG. 12)
# Description: as §1
# [3] = tested on: NIH3T3, OVCAR-3, HaCaT and HFB cells; assay: Cell preservation with DMSO plus rare sugar, growth after thawing (Example 1); format: cell-based, human, mouse; conditions: DMSO decreased to 1%, sub-optimal condition (FIG. 4, FIG. 5)
# Description: 1. Cells used: Hela (human cervical cancer), OVCAR-3 (human ovarian cancer), HuH-7 (human liver cancer), HaCaT (human skin keratinocyte), HFB (human fibroblast) and NIH3T3 (mouse fibroblast). Saccharides D-allose and the like were added to culture medium, Cell Banker (commercially available preservative solution) and DMSO at concentrations of 25 mM and 50 mM. Monosaccharides such as D-glucose, D-fructose, D-mannose and D-galactose which are present in nature in large quantities and D-allose, D-psicose, D-altrose, allitol, D-talitol and L-sorbose as rare sugars were used. Further, trehalose as disaccharide was used. The cells were preserved for 24 hours by being frozen at −80° C. 2) Cell growth: One day later, the cells were thawed, and 0.25˜2×10^4 cells/well were spread on 96-well plate with 0.1 mL medium. After a prescribed period of time, the cell growth was measured by MTT assay. 4) Since DMSO (dimethyl sulfoxide) is also commonly added to culture medium at a rate of 10% and used in freeze-preservation, the effect of rare sugar was examined in the system of DMSO. The difference in effect of rare sugar is hardly observed in a system using 10% DMSO, the effect of cell preservation was comparatively examined under a sub-optimal condition by decreasing the concentration of DMSO to 1%. NIH3T3, OVCAR-3, HaCaT and HFB cells and the like were used. […]
# [4] = tested on: Hela, OVCAR-3, HaCaT, HFB and NIH3T3 cells; assay: Survival rate of cells after freeze-preservation at high sugar concentration, trypan blue (Example 2); format: cell-based, human, mouse
# Description: 1. Cells used: Hela (human cervical cancer), OVCAR-3 (human ovarian cancer), HaCaT (human skin keratinocyte), HFB (human fibroblast) and NIH3T3 (mouse fibroblast). Saccharides D-allose and the like were added to culture medium, Cell Banker (commercially available preservative solution) and DMSO at concentrations of 0.2, 0.4, 0.6, 0.8 and 1M. Monosaccharides such as D-glucose, D-fructose, D-mannose and D-galactose which are present in nature in large quantities and D-allose, D-altrose, D-psicose, L-psicose, D-sorbose, L-sorbose, D-tagatose, L-tagatose and L-fructose as rare sugars were used. Further, trehalose as disaccharide was used. The cells frozen with D-allose were freeze-preserved at −80° C. and in liquid nitrogen for 24 hours, 1 week and 4 weeks. 1) Survival rate of cells: The cells were thawed, and the survival rate was estimated by a trypan blue dying method.
# [5] = tested on: human sperms; assay: Survival rate of frozen and thawed sperms, 0.5% Eosin Y dying; format: cell-based; conditions: freeze-preservative solution using D-allose, liquid nitrogen 1 month (FIG. 17)
# Description: Semens of ten healthy men who were 24 to 44 years old (mean: 29.9) with normal semens were used.
# The semen was manually collected after abstinence for 3 to 5 days, liquefied at room temperature, and then washed and concentrated by a 80% Percoll liquid agitation density gradient method. The resulting sperm turbid solution (0.2 ml) and the freeze-preservative solution were mixed in equal amounts, and the mixture was charged into a freezing tube (serum tube, Sumitomo Bakelite), frozen by a liquid nitrogen vapor freezing method, and then preserved in a liquid nitrogen tank. The freeze-preservative solution (refer to FIG. 14) was used such that the mixing amounts of D-allose and D-glucose were changed (A group=1:0, B group=3:1, C group=1:1, D group=1:3, E group=0:1) without changing the number of moles of the sugar in a KS-II sperm preservative solution. One month later, the frozen sperms were thawed in warm water (30° C.) with shaking. Further, for removal of the freeze-preservative solution and reconcentration, the density gradient centrifugation method was conducted, and the resulting sperm floating solution was examined.
# As the examination method, the sperm movement rate was measured by a visual observation method with Makler Counting Chamber and C-IMAGING SYSTEMS, and the survival rate was measured by 0.5% Eosin Y dying. […]
# [6] = tested on: Hela, OVCAR-3, HaCaT, HFB and NIH3T3 cells; assay: Cell growth after thawing of cells freeze-preserved at optimum concentrations, MTT assay (Example 2); format: cell-based, human, mouse
# Description: 1. Cells used: Hela (human cervical cancer), OVCAR-3 (human ovarian cancer), HaCaT (human skin keratinocyte), HFB (human fibroblast) and NIH3T3 (mouse fibroblast). Saccharides D-allose and the like were added to culture medium, Cell Banker (commercially available preservative solution) and DMSO at concentrations of 0.2, 0.4, 0.6, 0.8 and 1M. Monosaccharides such as D-glucose, D-fructose, D-mannose and D-galactose which are present in nature in large quantities and D-allose, D-altrose, D-psicose, L-psicose, D-sorbose, L-sorbose, D-tagatose, L-tagatose and L-fructose as rare sugars were used. Further, trehalose as disaccharide was used. The cells frozen with D-allose were freeze-preserved at −80° C. and in liquid nitrogen for 24 hours, 1 week and 4 weeks. 2) Cell growth: The cells were freeze-preserved with D-allose and trehalose at optimum concentrations for 24 hours, thawed, and spread on a 96-well plate such that the concentration was 0.5-1×10^4 cells/well/0.1 ml. After a prescribed period of time, the cell growth was measured by MTT assay.
# [7] = tested on: rat kidney; conditions: pre-administration, cited from earlier work
compound,measurement,setting,value
O=C[C@H](O)[C@H](O)[C@H](O)[C@H](O)CO [D-allose],MPO as the index of accumulation of leukocytes,[1],inhibited
same,CINC-1 protein amount after ischemic reperfusion,[2],significantly decreased
same,effect of preservation with DMSO,[3],improved
same,cell survival rate after thawing in comparison with other rare sugars,"[4]; 0, 0.2, 0.4, 0.6, 0.8 and 1M, comparison under way, tendency",the highest
same,survival rate of cells,"[4]; D-allose added to 10% DMSO and Cell Banker, compared with DMSO and Cell Banker","the higher the concentration of D-allose, the lower the survival rate of cells"
same,optimum preservation temperature,[4]; D-allose-containing freeze-preservative agent,−80 °C
same,survival rate of cells with extended time of freeze-preservation,[4]; freeze-preservation extended by one month,not changed so much
same,number of cells survived (trypan blue dying),[4]; sugar-containing medium in comparison with medium alone (FIG. 7),large
same,survival rate by temperature of freeze-preservation,[4]; −80° C. versus liquid nitrogen,much higher
same,survival rate of thawed sperms,[5],did not show a clear effect
same,growth rate of cells after thawing,"[6]; freeze-preserved 24 hours at optimum concentration, versus other cases (FIG. 8)",higher in growth rate
same,functional impairment of frozen cells,[6]; versus commercially available Cell Banker cell preservative solution,less impaired functionally
same,activation and floating of neutrophils after ischemic reperfusion,[7]; rat kidney (WO 03/097820),inhibits
same,functional disorder of the kidney,[7]; rat kidney ischemic reperfusion (WO 03/097820),decreases
